Data: publication PMC2532997, “Methoxylation enhances stilbene bioactivity in Caenorhabditis elegans” (BMC Pharmacology, 2008)

Assay: Determination of stilbene uptake (steady-state levels by GC-MS)
Format: in vivo, Caenorhabditis elegans
Conditions: animals treated for 2 days with 100 μM in the culture medium
Description: The differential bioactivities of methoxylated and hydroxylated stilbenes in C. elegans adults might reflect differences in uptake or bioavailability. In general, intact C. elegans adults take up compounds relatively poorly due to their thick, impermeable cuticle. This impermeability has impeded pharmacodynamic analysis in this organism. However, steady-state levels of compounds can be measured in treated animals to provide one measure of pharmacodynamics. To assess whether differential uptake correlated with bioactivity in C. elegans, steady-state levels for pterostilbene, resveratrol-trimethylether and desoxyrhapontigenin were determined in animals treated for 2 days with 100 μM of each compound in the culture medium. […] These concentrations were within the range of serum stilbene levels detected after dietary stilbene supplementation with human volunteers (approx. 2 μM) and rabbits (42.8 μM). […]
Uptake was determined for three stilbenes (desoxyrhapontigenin, pterostilbene and resveratrol-trimethylether) by measuring the steady-state levels of each stilbene in adult fem-1(hc17) hermaphrodites treated under the same conditions as those used for survival assays. […] Derivatized sample was analyzed for stilbenes by gas chromatography-mass spectrometry (GC-MS). […] Quantitation was performed from calibration curve of authentic stilbene samples. […]

For `COc1ccc(/C=C/c2cc(OC)cc(OC)c2)cc1` [Resveratrol-trimethylether, resveratrol-trimethylether], the “steady-state level relative to pterostilbene” value was “less than one-third the level of pterostilbene”.
